According to patent publication US10010585B2, “Methods of treating vestibular schwannoma and reducing hearing or neurite loss caused by vestibular schwannoma” (Massachusetts Eye and Ear Infirmary, priority 2014, dated 2018):
Where “and” joins values, the source holds several entries; their conditions need not be identical. Equal entries are not always repeated. Where two headings read alike, the source gives them in different places.

Columns and labels:
primary VS cells [1] = test: BrdU proliferation assay in primary VS cultures; type: cell-based, human; conditions: 48 hours
Protocol: Proliferation rate of 12 VS cultures was assessed and correlated with the tumor volume in the latest gadolinium enhanced T1-weighted MRI scan prior to surgical resection, and with tumor growth in vivo, measured as changes in the tumor's volume over time calculated from serial MRI scans. Tumor growth was standardized by dividing the growth rate by the initial tumor volume. Separate analyses were performed for solid tumors, which generally account for approximately 96% of VSs (Charabi et al., 1994), versus all studied tumors, which included 4 out of 13 total tumors with a visible cystic component, because cystic components could misrepresent true tumor volume (Charabi et al., 1994). To determine the level of cell proliferation in the cultures, Bromodeoxyuridine (BrdU) was added to the cells at a concentration of 10 μg/ml 20 hours before the cells were fixed. The cells were kept in the dark after the addition of BrdU Immunofluorescence protocol was followed as described under ‘Immunofluorescence,’ and cell and nuclear membranes were permeablized by incubation in 1% Triton-X for 10 minutes and by incubation in 2N Hydrochloric acid for 20 minutes, respectively, after fixation. Primary antibody against BrdU (AbD Serotec, NC, 1:200) and anti-rat IgG (Life Technologies, NY, 1:1000) were used. BrdU- and Hoechst-stained nuclei were counted in 3-5 fields and the ratio of BrdU positive to Hoechst positive nuclei was used to determine the proliferation rate in vitro. […]
(§1) Cultured human primary VS cells, primary SCs and HEI-193 cells were treated with NF-κB inhibitors BAY11-7082 (BAY11) or curcumin for 48 hours (Santa Cruz Biotechnology). BAY11 or curcumin, diluted in 100% DMSO, were mixed to the accurate concentrations in warmed media and applied to the cultures (with DMSO concentration in media being 1% maximum), alongside a no-treatment control receiving media alone with appropriate corresponding DMSO levels. Experiments were performed in media fortified with antibiotics and serum (same formulation as described in Example 1 for culturing cells).
(§2) After 48 hours of treatment, primary VS and Schwann cultures were fixed for BrdU staining, to visualize proliferation, or TUNEL staining, to visualize cell death. The same methodology as described in Example 1 was utilized. Cleaved caspase 3 staining, another apoptosis marker to reinforce findings using TUNEL, was conducted using an antibody against cleaved caspase 3 following the ‘immunofluorescence’ protocol outlined in Example 1.
(§3) The cultures were incubated with the drugs for 48 hours. To label proliferating cells, BrdU was added 20 hours before fixation. pH was measured in the media after drug addition to ensure no significant deviations.
(§4) After 48 hours of treatment with salicylates, primary VS and SC cultures were fixed for BrdU staining, to visualize proliferation, or TUNEL staining, to visualize cell death. The same methodology as described in Example 1 was utilized.
To understand cross-talk between HGF and VEGF-A pathway, cultured VS cells were incubated with Life Technologies silencer select siRNAs targeting VEGFA (s461) or MET (s8700). To understand whether HGF signaling contributed to VS proliferation, cultured VS cells were treated with MET inhibitor SU11274 (Sigma-Aldrich, MO, #S9820). Seventy-two hours after siRNA treatment or 12 hours after treatment with SU11274 (2 μM), cells were incubated with 10 μg/mL BrdU (Life Technologies, NY, # B23151) for 20 hours before fixation.

primary VS cells [2] = test: TUNEL cell death assay in primary VS cultures; type: cell-based, human; conditions: 48 hours
Protocol: Rate of apoptosis in 6 VS cultures was assessed and correlated with tumor growth in vivo and tumor volume. […] Apoptosis was measured using terminal deoxynucleotidyl transferase dUTP nick end labeling (TUNEL, Roche Applied Sciences, NY) following manufacturer's instructions. Briefly, immunofluorescence protocol was followed as described under ‘Immunofluorescence,’ until fixations, then the cells were washed with PBS thrice and incubated in 1% Triton-X for 10 minutes on shaker. The cells were washed with PBS once and incubated in TUNEL mix for 1 hour at 37° C., then for 30 minutes at RT on shaker. The cells were then incubated in rhodamine phalloidin (Life Technologies, NY, 1:40) and Hoechst stain for 20 minutes, washed with PBS thrice and mounted onto slides for imaging. TUNEL and Hoechst stained nuclei were counted in >3 fields and the ratio of TUNEL positive to Hoechst positive nuclei was used to determine apoptosis rate in vitro. A positive control of 10 minutes-DNAse (Roche Applied Sciences, NY) treatment prior to TUNEL labeling was utilized.
(§5) For siRNA treatment, cultured primary VS cells or HEI-193 cells were placed in antibiotic and serum free media overnight. The next day, the cells were incubated with Life Technologies siRNAs targeting NF-κB genes RELA and NF-κB1, with control cells being treated with vehicle only (Lipofectamine RNAiMax), for 5 days. Some cultures were also incubated with a fluorescent random Oligo (Life Technologies) along with vehicle to assess transfection efficiency. siRNA experiments were performed in antibiotic and serum free media.
BAY11 or curcumin, diluted in 100% DMSO, were mixed to the accurate concentrations in warmed media and applied to the cultures (with DMSO concentration in media being 1% maximum), alongside a no-treatment control receiving media alone with appropriate corresponding DMSO levels.
After 48 hours of treatment, primary VS and Schwann cultures were fixed for BrdU staining, to visualize proliferation, or TUNEL staining, to visualize cell death.
After 48 hours of treatment with salicylates, primary VS and SC cultures were fixed for BrdU staining, to visualize proliferation, or TUNEL staining, to visualize cell death.

COX-2 = conditions: 48 hours, VS culture media
Protocol: Prostaglandin (PTG) E2 was assayed in the media of VS cultures using the Prostaglandin E2 Parameter Assay Kit (R&D Systems, KGE004B). The media was collected after 48 hours of treatment from non-treated and treated cultured cells. Manufacturer's instructions were closely followed.
as §3

primary SCs [3] = test: BrdU proliferation assay in primary Schwann cell cultures; type: cell-based, human; conditions: 48 hours
Protocol: (§6) Proliferation rate of 12 VS cultures was assessed and correlated with the tumor volume in the latest gadolinium enhanced T1-weighted MRI scan prior to surgical resection, and with tumor growth in vivo, measured as changes in the tumor's volume over time calculated from serial MRI scans. Tumor growth was standardized by dividing the growth rate by the initial tumor volume. Separate analyses were performed for solid tumors, which generally account for approximately 96% of VSs (Charabi et al., 1994), versus all studied tumors, which included 4 out of 13 total tumors with a visible cystic component, because cystic components could misrepresent true tumor volume (Charabi et al., 1994). To determine the level of cell proliferation in the cultures, Bromodeoxyuridine (BrdU) was added to the cells at a concentration of 10 μg/ml 20 hours before the cells were fixed. The cells were kept in the dark after the addition of BrdU Immunofluorescence protocol was followed as described under ‘Immunofluorescence,’ and cell and nuclear membranes were permeablized by incubation in 1% Triton-X for 10 minutes and by incubation in 2N Hydrochloric acid for 20 minutes, respectively, after fixation. Primary antibody against BrdU (AbD Serotec, NC, 1:200) and anti-rat IgG (Life Technologies, NY, 1:1000) were used. BrdU- and Hoechst-stained nuclei were counted in 3-5 fields and the ratio of BrdU positive to Hoechst positive nuclei was used to determine the proliferation rate in vitro.
as §1, §2, §3, §4

NF2 VSs = conditions: NF2 VS patients; cited from earlier work
HEI-193 NF2 VS cell line [4] = test: BrdU proliferation assay in HEI-193 cells; type: cell-based, human; conditions: 48 hours
Protocol: as §6
(§7) The same methodology as described in Example 1 was utilized for primary VS and SC cultures. Cultures were treated with NF-κB inhibitors approximately after 2 weeks of culturing. HEI-193 cell line was a gift from Dr. Giovannini at the House Ear Institute (Hung et al., 2002a).
as §5, §1, §2

primary SCs [5] = test: TUNEL cell death assay in primary Schwann cell cultures; type: cell-based, human; conditions: human, 48 h
Protocol: (§8) Rate of apoptosis in 6 VS cultures was assessed and correlated with tumor growth in vivo and tumor volume. Two out of the six VS had cystic components. Apoptosis was measured using terminal deoxynucleotidyl transferase dUTP nick end labeling (TUNEL, Roche Applied Sciences, NY) following manufacturer's instructions. Briefly, immunofluorescence protocol was followed as described under ‘Immunofluorescence,’ until fixations, then the cells were washed with PBS thrice and incubated in 1% Triton-X for 10 minutes on shaker. The cells were washed with PBS once and incubated in TUNEL mix for 1 hour at 37° C., then for 30 minutes at RT on shaker. The cells were then incubated in rhodamine phalloidin (Life Technologies, NY, 1:40) and Hoechst stain for 20 minutes, washed with PBS thrice and mounted onto slides for imaging. TUNEL and Hoechst stained nuclei were counted in >3 fields and the ratio of TUNEL positive to Hoechst positive nuclei was used to determine apoptosis rate in vitro. A positive control of 10 minutes-DNAse (Roche Applied Sciences, NY) treatment prior to TUNEL labeling was utilized.
as §1, §2

HEI-193 NF2 VS cell line [6] = test: TUNEL cell death assay in HEI-193 cells; type: cell-based, human; conditions: 48 hours
Protocol: as §8, §7, §5, §1, §2

## O=C([O-])c1ccccc1O.[Na+] [NaSal, sodium salicylate]
Primary VS cells [1]; 1 mM
  proliferation, of the NT cells: 18% and 18.9±5.0%
Primary VS cells [1]; 5 mM
  proliferation, of the NT cells: 25.4±11.1%
Primary VS cells [1]; 10 mM
  proliferation, of the NT cells: 20.6±11.2%
Primary VS cells [2]; 5 mM
  cell death rate: 3.3±2.3%
COX-2; 1 mM
  secreted PTG levels, of NT cells: 3.8%
COX-2; 5 mM
  secreted PTG levels, of NT cells: 32.2%
Primary SCs [3]; 5 mM
  proliferation, of the NT cells: 104.4±13.2%
Primary SCs [3]; 10 mM
  proliferation, of the NT cells: 64.9±18.9%

## CS(=O)(=O)CCNCc1ccc(-c2ccc3ncnc(Nc4ccc(OCc5cccc(F)c5)c(Cl)c4)c3c2)o1 [Lapatinib, lapatinib]
NF2 VSs
  patients with decrease in tumor size / volume: approximately 24%
  patients with hearing improvement: ~31%

## bevacizumab
NF2 VSs
  patients with decrease in tumor size / volume: 55%
  patients with hearing improvement: 57%

## COc1cc(/C=C/C(=O)CC(=O)/C=C/c2ccc(O)c(OC)c2)ccc1O [curcumin]
Primary VS cells [1]; 5 μM
  proliferation, of the non-treated cells: 141.8%±95.2%
Primary VS cells [1]; 20 μM
  proliferation, of the non-treated cells: 23.0±20.9%
HEI-193 NF2 VS cell line [4]; 5 μM
  normalized proliferation rate: 95.0±1.6%
HEI-193 NF2 VS cell line [4]; 20 μM
  normalized proliferation rate: 0.4±0.4%
HEI-193 NF2 VS cell line [4]; 50 μM
  normalized proliferation rate: 2.3±2.3%
Primary SCs [5]; 5 μM
  apoptosis / cell death rate: 1.3±0.3%
Primary SCs [5]; 20 μM
  cell death rate: 1.7±0.4%
Primary SCs [5]; 50 μM
  cell death rate: 52.2±14.9%
Primary VS cells [2]; 5 μM
  cell death rate: 11.6±6.3%
Primary VS cells [2]; 20 μM
  cell death rate: 1.8±1.0%
Primary VS cells [2]; 50 μM
  cell death rate: 73.3±6.3%
Primary SCs [3]; 5 μM
  normalized proliferation rate: 85.3±25.7%
Primary SCs [3]; 20 μM
  normalized proliferation rate: 31.0±18.3%
Primary SCs [3]; 50 μM
  normalized proliferation rate: 3.14%
HEI-193 NF2 VS cell line [6]; 5 μM
  cell death rate: 0.3±0.1%
HEI-193 NF2 VS cell line [6]; 20 μM
  cell death rate: 77.3±8.4%
HEI-193 NF2 VS cell line [6]; 50 μM
  cell death rate: 97.8±1.5%
